From PubChem BioAssay AID1996
In brackets after ≈: the same amount, converted by molar mass.

Conditions: buffer; pH 7.4; 200.0 µM

Row | solubility kinetic | Compound
1 | > 37 µg/mL | Cl.c1ccc2c(CC3=NCCN3)cccc2c1
2 | 39.6 µg/mL (≈ 122 µM) | OC(CNCc1ccccc1F)COc1cccc2ccccc12 (stereo unspecified)
3 | > 41 µg/mL | CCCc1ccc(OCCNC(=O)c2ccco2)cc1
4 | > 46.9 µg/mL | COc1cccc(C(=O)NCCS(=O)(=O)N2CCCC2)c1
5 | > 46.9 µg/mL | CC(C)c1ccc(NC2CCCN(C(=O)c3ccco3)C2)cc1 (stereo unspecified)
6 | 5.7 µg/mL (≈ 20 µM) | Cc1cccc2sc(NC(=O)CCn3cccc3)nc12
7 | 19 µg/mL (≈ 60.3 µM) | COc1ccc(C(=O)CC(=O)C(=O)Nc2cccc(F)c2)cc1
8 | 7.2 µg/mL (≈ 21.5 µM) | CC(C)Oc1ccc(CNC(=S)Nc2ccccc2)cc1Cl
9 | 42.1 µg/mL (≈ 138 µM) | CCOc1ccccc1NC(=S)NCCCn1ccnc1
10 | > 38.1 µg/mL | CC(C)(Oc1ccc(Cl)cc1)C(=O)NC1CC1
11 | 0.7 µg/mL (≈ 2.49 µM) | COc1ccc(CC(=O)Nc2nc3ccccc3[nH]2)cc1
12 | 2.1 µg/mL (≈ 7.21 µM) | COc1ccccc1NC(=O)Cc1cccc2ccccc12
13 | 42.7 µg/mL (≈ 142 µM) | COc1ccc2[nH]cc(CCNC(=O)C3CCCCC3)c2c1
14 | > 53.2 µg/mL | Cc1c(C(=O)NCC(c2ccco2)N2CCCC2)sc2ccccc12 (stereo unspecified)
15 | > 52.5 µg/mL | Cn1nc(-c2ccc(Cl)cc2)cc1NC(=O)CC(C)(C)CC(=O)O
16 | 4 µg/mL (≈ 11.7 µM) | CCCc1c(C)nc(N2CCN(c3cccc(OC)c3)CC2)[nH]c1=O
17 | 6.7 µg/mL (≈ 21.4 µM) | Cc1cc(NC(=O)c2ccc(-c3ccccc3[N+](=O)[O-])o2)no1
18 | > 37.5 µg/mL | Cc1ccccc1Nc1nc(N)nc(CCl)n1

Row | solubility kinetic | Compound
19 | > 47.3 µg/mL | COc1cc(C2SCC(=O)N2Cc2ccccc2)ccc1O (stereo unspecified)
20 | 5.7 µg/mL (≈ 15.2 µM) | O=C(COC(=O)CCC(=O)c1ccc(Cl)cc1)NCCc1ccccc1
21 | 6.4 µg/mL (≈ 23.9 µM) | O=[N+]([O-])c1cccc(-c2nc(-c3ccccn3)no2)c1
22 | 37.9 µg/mL (≈ 100 µM) | Cc1cccc(NC(=O)[C@@H]2CCCN2S(=O)(=O)c2ccc(Cl)cc2)c1
23 | < 0.6 µg/mL | CC(C)(C)c1ccc(C(=O)NCc2ccccc2)cc1
24 | 47.2 µg/mL (≈ 126 µM) | O=C(NCCc1ccccc1)c1cccc(N2C(=O)C3CC=CCC3C2=O)c1 (stereo unspecified)
25 | > 60.4 µg/mL | COc1ccc(CNC(=O)COC(=O)[C@@H]2CCCN2C(=O)c2cccs2)cc1
26 | 42.3 µg/mL (≈ 148 µM) | COc1ccc(N2C(=O)CSC2c2ccccc2)cc1 (stereo unspecified)
27 | 41.4 µg/mL (≈ 138 µM) | O=C1CSC(c2cccc([N+](=O)[O-])c2)N1c1ccccc1 (stereo unspecified)
28 | < 0.3 µg/mL | O=C(Nc1ccc(Cl)cn1)c1ccc(Oc2ccccc2)cc1
29 | < 0.7 µg/mL | O=C(OCc1csc(-c2ccccc2)n1)c1ccccc1O
30 | < 0.2 µg/mL | Cc1cc(C)c2nc(Cl)c(C3NC(=O)c4ccccc4N3)cc2c1 (stereo unspecified)
31 | > 69.9 µg/mL | COc1cccc(C(CNC(=O)c2ccc(Cl)c(S(=O)(=O)N3CCCC3)c2)N(C)C)c1 (stereo unspecified)
32 | 49.1 µg/mL (≈ 142 µM) | COc1ccc(NC(=O)CCSCCc2ccccn2)cc1OC
33 | 34.9 µg/mL (≈ 133 µM) | Cc1c(Cl)cccc1NC(=O)Nc1cccnc1
34 | 62.3 µg/mL (≈ 124 µM) | CCOc1ccc(C(=O)N[C@H](C(=O)Nc2ccc(S(=O)(=O)Nc3nccs3)cc2)C(C)C)cc1
35 | 13.6 µg/mL (≈ 49.2 µM) | Cn1c(SCc2ccccc2)nc(N)c(N=O)c1=O

Continued, compound first:

Row | Compound | solubility kinetic
36 | Nc1c2c(nc3sc4c(c13)CCCC4)-c1ccccc1CC2 | < 0.3 µg/mL
37 | Cc1cc(C)n2c(=O)c3ccc(Cl)cc3nc2c1C#N | 1.3 µg/mL (≈ 4.58 µM)
38 | Cc1ccc(C)c(C(C)NC(=S)NC2CCCCC2)c1 (stereo unspecified) | 10.7 µg/mL (≈ 36.8 µM)
39 | Cn1cccc1C1CCCN1CC(=O)Nc1c(Cl)cc(Cl)cc1Cl (stereo unspecified) | 32.5 µg/mL (≈ 84 µM)
40 | CCCn1c(C(=O)c2ccccc2)nc2ccccc21 | 9.7 µg/mL (≈ 36.7 µM)
41 | Cc1nn(C)cc1S(=O)(=O)Nc1cccc(Cl)c1 | > 42.9 µg/mL
42 | Cc1ccc(NS(=O)(=O)c2ccc(C)c(NC(=S)NCCN3CCOCC3)c2)c(C)c1 | > 69.4 µg/mL
43 | Clc1ccc(CN2CCSCC2)cc1Cl | 2.6 µg/mL (≈ 9.92 µM)
44 | Cc1cnc(=O)[nH]c1SCc1cccc(C(F)(F)F)c1 | 8.3 µg/mL (≈ 27.6 µM)
45 | CC(CN1CCN(C)CC1)OC(=O)c1cccc(F)c1.Cl (stereo unspecified) | > 47.5 µg/mL
46 | Cc1ccc(N2CC(C(=O)N3CCCCCC3)CC2=O)cc1 (stereo unspecified) | > 45.1 µg/mL
47 | COCCCn1c(=S)[nH]c(C)c(C)c1=O | > 34.2 µg/mL
48 | CC1CCN(C(=O)C2COc3ccccc3O2)CC1 (stereo unspecified) | > 39.2 µg/mL
49 | CCN(C(=O)CSc1nc2scc(-c3ccccc3)c2c(=O)n1C)C1CCS(=O)(=O)C1 (stereo unspecified) | 3.1 µg/mL (≈ 6.49 µM)
50 | O=C(OCC(=O)N1CCCCC1)c1cccs1 | > 38 µg/mL
51 | Cc1cccc(-c2noc(-c3ccno3)n2)c1 | 4.8 µg/mL (≈ 21.1 µM)
52 | Cc1ccc(-n2c(C)cc(C(=O)CN3CCOCC3)c2C)cc1C | > 49 µg/mL
53 | CCOC(=O)c1cc(C#N)c(SC)nc1C | 0.9 µg/mL (≈ 3.81 µM)
54 | CCCNC(=O)CSc1nccn1Cc1ccco1 | > 41.9 µg/mL
55 | Cc1ccc(CNC(=S)N(C)C)cc1 | > 31.2 µg/mL
56 | Cc1ccc2ccc(C)[n+](CCCS(=O)(=O)[O-])c2c1 | 12.4 µg/mL (≈ 44.4 µM)
57 | CC1(C)CC(=O)C=C(Nc2ccc(Cl)c(Br)c2)C1 | 8.5 µg/mL (≈ 25.9 µM)
58 | CC(C)C(NS(=O)(=O)c1ccccc1)C(=O)N1CCCC1 (stereo unspecified) | > 46.6 µg/mL
59 | O=C1CCc2ccccc2N1 | 15.9 µg/mL (≈ 108 µM)
60 | Cc1cc(N)ccc1NC(=O)CN1CCOCC1 | > 37.4 µg/mL
61 | Nc1ccc(NC(=O)CCN2CCOCC2)cc1 | 34.8 µg/mL (≈ 140 µM)
